Source: patent publication US10167262B2, “Herbicidal substituted 3-arylpyrazoles” (FMC CORPORATION, priority 2014, dated 2019)

Tests used:
Assay type in all cases: in vivo
[1] = tested on: barnyardgrass (Echinochloa crus-galli); test: Test B flooded paddy test, plant response rating 0-100; details: Flood, 250 g ai/ha; scale 0 to 100 (0 no effect, 100 complete control); 13 to 15 days
Procedure, shortened: (§1)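 In-water treatment: compound dosed into 3 cm flood over soil, water level unchanged throughout. Controls run alongside; visual assessment at day 13–15.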

[2] = tested on: ducksalad (Heteranthera limosa); test: as above; details: Flood, 250 g ai/ha; scale 0 to 100 (0 no effect, 100 complete control); 13 to 15 days
Procedure, shortened: as §1

rice (Oryza sativa) = test: as above; details: Flood, 250 g ai/ha; scale 0 to 100 (0 no effect, 100 complete control); 13 to 15 days
Procedure, shortened: as §1

[3] = tested on: sedge, umbrella (small-flower umbrella sedge, Cyperus difformis); test: as above; details: Flood, 250 g ai/ha; scale 0 to 100 (0 no effect, 100 complete control); 13 to 15 days
Procedure, shortened: as §1

[4] = tested on: fall panicum (Panicum dichotomiflorum); test: Test E pre-/postemergence greenhouse test, plant response rating 0-100; details: scale 0 to 100; for Panicum, Fall plant response rating: Preemergence
Procedure, shortened: (§2)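 Preemergence application to planted silt loam and postemergence application to 2–18 cm seedlings are run simultaneously. Evaluation is visual against controls after 14 to 21 days, scored from 0 (no effect) to 100 (complete control).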

soybean (Glycine max) = test: as above; details: scale 0 to 100; for Soybean plant response rating: Preemergence
Procedure, shortened: as §2

[5] = tested on: waterhemp_RES2, (ALS & HPPD resistant common waterhemp, Amaranthus rudis); test: Test E postemergence greenhouse test, plant response rating 0-100; details: scale 0 to 100
Procedure, shortened: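 Visual ratings, 0 (no effect) to 100 (complete control), made versus controls 14–21 days after postemergence application in the greenhouse. Plants were at 1- to 4-leaf stage (2–18 cm) in peat moss/vermiculite potting medium.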

O=Cn1cc(C(=O)c2ccccc2)c(-c2cc(Cl)cc(Cl)c2)n1 [Compound 28]
Plant response rating, Barnyardgrass [1]: 0
Plant response rating, Ducksalad [2]: 0
Plant response rating, Rice (rice (Oryza sativa)): 0
Plant response rating, Sedge, Umbrella [3]: 0
Plant response rating, Panicum, Fall ([4]; Postemergence, 31 g ai/ha): 0
Plant response rating, Panicum, Fall ([4]; Postemergence, 62 g ai/ha): 0
Plant response rating, Panicum, Fall ([4]; Postemergence, 125 g ai/ha): 0
Plant response rating, Panicum, Fall ([4]; Postemergence, 250 g ai/ha): 0
Plant response rating, Panicum, Fall ([4]; Postemergence, 500 g ai/ha): 0
Panicum, Fall plant response rating ([4]; 31 g ai/ha): 0
Panicum, Fall plant response rating ([4]; 62 g ai/ha): 0
Panicum, Fall plant response rating ([4]; 125 g ai/ha): 0
Panicum, Fall plant response rating ([4]; 250 g ai/ha): 0
Panicum, Fall plant response rating ([4]; 500 g ai/ha): 0
Plant response rating, Soybean (soybean (Glycine max); Postemergence, 31 g ai/ha): 0
Plant response rating, Soybean (soybean (Glycine max); Postemergence, 62 g ai/ha): 0
Plant response rating, Soybean (soybean (Glycine max); Postemergence, 125 g ai/ha): 0
Plant response rating, Soybean (soybean (Glycine max); Postemergence, 250 g ai/ha): 0
Plant response rating, Soybean (soybean (Glycine max); Postemergence, 500 g ai/ha): 0
Soybean plant response rating (soybean (Glycine max); 31 g ai/ha): 0
Soybean plant response rating (soybean (Glycine max); 62 g ai/ha): 0
Soybean plant response rating (soybean (Glycine max); 125 g ai/ha): 0
Soybean plant response rating (soybean (Glycine max); 250 g ai/ha): 0
Soybean plant response rating (soybean (Glycine max); 500 g ai/ha): 0
Plant response rating, Waterhemp_RES2 ([5]; 31 g ai/ha): 50
Plant response rating, Waterhemp_RES2 ([5]; 62 g ai/ha): 60
Plant response rating, Waterhemp_RES2 ([5]; 125 g ai/ha): 80
Plant response rating, Waterhemp_RES2 ([5]; 250 g ai/ha): 85
Plant response rating, Waterhemp_RES2 ([5]; 500 g ai/ha): 90

O=C(c1ccccc1)c1cn(S(=O)(=O)CCl)nc1-c1cc(Cl)cc(Cl)c1 [Compound 1]
Plant response rating, Barnyardgrass [1]: 0
Plant response rating, Ducksalad [2]: 0
Plant response rating, Rice (rice (Oryza sativa)): 0
Plant response rating, Sedge, Umbrella [3]: 0
Plant response rating, Panicum, Fall ([4]; Postemergence, 31 g ai/ha): 0
Plant response rating, Panicum, Fall ([4]; Postemergence, 62 g ai/ha): 0
Plant response rating, Panicum, Fall ([4]; Postemergence, 125 g ai/ha): 0
Plant response rating, Panicum, Fall ([4]; Postemergence, 250 g ai/ha): 0
Plant response rating, Panicum, Fall ([4]; Postemergence, 500 g ai/ha): 0
Panicum, Fall plant response rating ([4]; 31 g ai/ha): 0
Panicum, Fall plant response rating ([4]; 62 g ai/ha): 0
Panicum, Fall plant response rating ([4]; 125 g ai/ha): 0
Panicum, Fall plant response rating ([4]; 250 g ai/ha): 0
Panicum, Fall plant response rating ([4]; 500 g ai/ha): 0
Plant response rating, Soybean (soybean (Glycine max); Postemergence, 31 g ai/ha): 0
Plant response rating, Soybean (soybean (Glycine max); Postemergence, 62 g ai/ha): 0
Plant response rating, Soybean (soybean (Glycine max); Postemergence, 125 g ai/ha): 0
Plant response rating, Soybean (soybean (Glycine max); Postemergence, 250 g ai/ha): 0
Plant response rating, Soybean (soybean (Glycine max); Postemergence, 500 g ai/ha): 0
Soybean plant response rating (soybean (Glycine max); 31 g ai/ha): 0
Soybean plant response rating (soybean (Glycine max); 62 g ai/ha): 0
Soybean plant response rating (soybean (Glycine max); 125 g ai/ha): 0
Soybean plant response rating (soybean (Glycine max); 250 g ai/ha): 0
Soybean plant response rating (soybean (Glycine max); 500 g ai/ha): 0
Plant response rating, Waterhemp_RES2 ([5]; 31 g ai/ha): 40
Plant response rating, Waterhemp_RES2 ([5]; 125 g ai/ha): 35
Plant response rating, Waterhemp_RES2 ([5]; 250 g ai/ha): 98
Plant response rating, Waterhemp_RES2 ([5]; 500 g ai/ha): 98

COCC(=O)n1cc(C(=O)c2ccccc2)c(-c2cc(Cl)cc(Cl)c2)n1 [Compound 16, 1-[4-benzoyl-3-(3,5-dichlorophenyl)-1H-pyrazol-1-yl]-2-methoxyethanone]
Plant response rating, Barnyardgrass [1]: 0
Plant response rating, Ducksalad [2]: 0
Plant response rating, Rice (rice (Oryza sativa)): 0
Plant response rating, Sedge, Umbrella [3]: 0
pest or weed control at 31 g/ha ([4]; Panicum dichotomiflorum, post-emergence, Postemergence, 31 g ai/ha): 0%
pest or weed control at 62 g/ha ([4]; Panicum dichotomiflorum, post-emergence, Postemergence, 62 g ai/ha): 0%
pest or weed control at 125 g/ha ([4]; Panicum dichotomiflorum, post-emergence, Postemergence, 125 g ai/ha): 60%
pest or weed control at 250 g/ha ([4]; Panicum dichotomiflorum, post-emergence, Postemergence, 250 g ai/ha): 30%
pest or weed control at 500 g/ha ([4]; Panicum dichotomiflorum, post-emergence, Postemergence, 500 g ai/ha): 65%
Panicum, Fall plant response rating ([4]; 31 g ai/ha): 0
Panicum, Fall plant response rating ([4]; 62 g ai/ha): 0
Panicum, Fall plant response rating ([4]; 125 g ai/ha): 0
Panicum, Fall plant response rating ([4]; 250 g ai/ha): 0
Panicum, Fall plant response rating ([4]; 500 g ai/ha): 0
plant injury at 31 g/ha (soybean (Glycine max); Glycine max, post-emergence, Postemergence, 31 g ai/ha): 0%
plant injury at 62 g/ha (soybean (Glycine max); Glycine max, post-emergence, Postemergence, 62 g ai/ha): 0%
plant injury at 125 g/ha (soybean (Glycine max); Glycine max, post-emergence, Postemergence, 125 g ai/ha): 0%
plant injury at 250 g/ha (soybean (Glycine max); Glycine max, post-emergence, Postemergence, 250 g ai/ha): 0%
plant injury at 500 g/ha (soybean (Glycine max); Glycine max, post-emergence, Postemergence, 500 g ai/ha): 0%
Soybean plant response rating (soybean (Glycine max); 31 g ai/ha): 0
Soybean plant response rating (soybean (Glycine max); 62 g ai/ha): 0
Soybean plant response rating (soybean (Glycine max); 125 g ai/ha): 0
Soybean plant response rating (soybean (Glycine max); 250 g ai/ha): 0
Soybean plant response rating (soybean (Glycine max); 500 g ai/ha): 0
Plant response rating, Waterhemp_RES2 ([5]; 31 g ai/ha): 95
Plant response rating, Waterhemp_RES2 ([5]; 62 g ai/ha): 95
Plant response rating, Waterhemp_RES2 ([5]; 125 g ai/ha): 75
Plant response rating, Waterhemp_RES2 ([5]; 250 g ai/ha): 98
Plant response rating, Waterhemp_RES2 ([5]; 500 g ai/ha): 100

O=C(c1ccccc1)c1cn(S(=O)(=O)CC(F)(F)F)nc1-c1cc(Cl)cc(Cl)c1 [Compound 3]
Plant response rating, Barnyardgrass [1]: 0
Plant response rating, Ducksalad [2]: 0
Plant response rating, Rice (rice (Oryza sativa)): 0
Plant response rating, Sedge, Umbrella [3]: 0
Plant response rating, Panicum, Fall ([4]; Postemergence, 31 g ai/ha): 0
Plant response rating, Panicum, Fall ([4]; Postemergence, 62 g ai/ha): 0
Plant response rating, Panicum, Fall ([4]; Postemergence, 125 g ai/ha): 0
Plant response rating, Panicum, Fall ([4]; Postemergence, 250 g ai/ha): 0
Plant response rating, Panicum, Fall ([4]; Postemergence, 500 g ai/ha): 0
Panicum, Fall plant response rating ([4]; 31 g ai/ha): 0
Panicum, Fall plant response rating ([4]; 62 g ai/ha): 0
Panicum, Fall plant response rating ([4]; 125 g ai/ha): 0
Panicum, Fall plant response rating ([4]; 250 g ai/ha): 0
Panicum, Fall plant response rating ([4]; 500 g ai/ha): 0
Plant response rating, Soybean (soybean (Glycine max); Postemergence, 31 g ai/ha): 0
Plant response rating, Soybean (soybean (Glycine max); Postemergence, 62 g ai/ha): 0
Plant response rating, Soybean (soybean (Glycine max); Postemergence, 125 g ai/ha): 0
Plant response rating, Soybean (soybean (Glycine max); Postemergence, 250 g ai/ha): 0
Plant response rating, Soybean (soybean (Glycine max); Postemergence, 500 g ai/ha): 0
Soybean plant response rating (soybean (Glycine max); 31 g ai/ha): 0
Soybean plant response rating (soybean (Glycine max); 62 g ai/ha): 0
Soybean plant response rating (soybean (Glycine max); 125 g ai/ha): 0
Soybean plant response rating (soybean (Glycine max); 500 g ai/ha): 0
Plant response rating, Waterhemp_RES2 ([5]; 31 g ai/ha): 60
Plant response rating, Waterhemp_RES2 ([5]; 62 g ai/ha): 80
Plant response rating, Waterhemp_RES2 ([5]; 125 g ai/ha): 70
Plant response rating, Waterhemp_RES2 ([5]; 250 g ai/ha): 95
Plant response rating, Waterhemp_RES2 ([5]; 500 g ai/ha): 95

O=C(c1ccccc1)c1cn(S(=O)(=O)C(F)(F)F)nc1-c1cc(Cl)cc(Cl)c1 [Compound 2]
Plant response rating, Barnyardgrass [1]: 0
Plant response rating, Ducksalad [2]: 0
Plant response rating, Rice (rice (Oryza sativa)): 0
Plant response rating, Sedge, Umbrella [3]: 0
Plant response rating, Panicum, Fall ([4]; Postemergence, 31 g ai/ha): 0
Plant response rating, Panicum, Fall ([4]; Postemergence, 62 g ai/ha): 0
Plant response rating, Panicum, Fall ([4]; Postemergence, 125 g ai/ha): 0
Plant response rating, Panicum, Fall ([4]; Postemergence, 250 g ai/ha): 25
Plant response rating, Panicum, Fall ([4]; Postemergence, 500 g ai/ha): 40
Panicum, Fall plant response rating ([4]; 31 g ai/ha): 0
Panicum, Fall plant response rating ([4]; 62 g ai/ha): 0
Panicum, Fall plant response rating ([4]; 125 g ai/ha): 0
Panicum, Fall plant response rating ([4]; 250 g ai/ha): 0
Panicum, Fall plant response rating ([4]; 500 g ai/ha): 0
Plant response rating, Soybean (soybean (Glycine max); Postemergence, 31 g ai/ha): 0
Plant response rating, Soybean (soybean (Glycine max); Postemergence, 62 g ai/ha): 0
Plant response rating, Soybean (soybean (Glycine max); Postemergence, 125 g ai/ha): 0
Plant response rating, Soybean (soybean (Glycine max); Postemergence, 250 g ai/ha): 0
Plant response rating, Soybean (soybean (Glycine max); Postemergence, 500 g ai/ha): 0
Soybean plant response rating (soybean (Glycine max); 125 g ai/ha): 0
Soybean plant response rating (soybean (Glycine max); 250 g ai/ha): 0
Soybean plant response rating (soybean (Glycine max); 500 g ai/ha): 0
Plant response rating, Waterhemp_RES2 ([5]; 31 g ai/ha): 0
Plant response rating, Waterhemp_RES2 ([5]; 62 g ai/ha): 65
Plant response rating, Waterhemp_RES2 ([5]; 125 g ai/ha): 85
Plant response rating, Waterhemp_RES2 ([5]; 250 g ai/ha): 95
Plant response rating, Waterhemp_RES2 ([5]; 500 g ai/ha): 98
